# Where two headings read alike, the source gives them in different places.
# What was measured:
# [1] = tested on: Klebsiella pneumoniae; experiment: MIC micro broth dilution assay; assay type: cell-based; design: key to stacked score activity, 100/MIC, K: stacked score = 100/MIC; conditions: for stacked score activity, 100/MIC, K: K. pneumoniae
# Outline: (§1)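 Multidrug-resistant clinical ESKAPE isolates were grown overnight (Gram-positives in TSB, Gram-negatives in LB), diluted 1:1,000 and exposed to decreasing compound concentrations in DMF (≤2.0% DMF).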
# [2] = tested on: Acinetobacter baumannii; experiment: MIC micro broth dilution assay; assay type: cell-based; design: key to stacked score activity, 100/MIC, A: stacked score = 100/MIC; conditions: for stacked score activity, 100/MIC, A: A. baumannii
# Outline: as §1
# [3] = tested on: Acinetobacter baumannii; experiment: Minimal bactericidal concentration (MBC) assay; assay type: cell-based; conditions: purified compound, read-out: MBC90
# Procedure: (§2) Briefly, compound was washed by centrifugation and serial dilution, before plating on Tryptic Soy Agar (TSA). Plates were incubated for 24 hours at 37° C. and cell viability assessed by determining CFU/ml at each concentration, for every compound. Percent recovery was then determined compared to CFU/ml from no drug controls. All concentrations and controls were tested using three biological replicates, alongside two technical replicates for each data point.
# [4] = tested on: Enterobacter cloacae; experiment: Minimal bactericidal concentration (MBC) assay; assay type: cell-based; conditions: purified compound, read-out: MBC90
# Procedure: as §2
# [5] = tested on: Enterococcus faecium; experiment: Minimal bactericidal concentration (MBC) assay; assay type: cell-based; conditions: purified compound, read-out: MBC90
# Procedure: as §2
# [6] = tested on: Klebsiella pneumoniae; experiment: Minimal bactericidal concentration (MBC) assay; assay type: cell-based; conditions: purified compound, read-out: MBC90
# Procedure: as §2
# [7] = tested on: Pseudomonas aeruginosa; experiment: Minimal bactericidal concentration (MBC) assay; assay type: cell-based; conditions: purified compound, read-out: MBC90
# Procedure: as §2
# [8] = tested on: Staphylococcus aureus; experiment: Minimal bactericidal concentration (MBC) assay; assay type: cell-based; conditions: purified compound, read-out: MBC90
# Procedure: as §2
# [9] = tested on: human A549 cells; experiment: Cytotoxicity assay (MTT); assay type: cell-based; conditions: for IC50: MTT, 48 hours
# Procedure: Cytotoxicity assays were performed using human A549 cells (adenocarcinomic human alveolar epithelial cells), as described by us previously.^44 Briefly, cells were cultured in F-12K Nutrient mixture (Kaighn's Modification) media containing L-glutamine, supplemented with 10% fetal bovine serum and 1% penicillin-streptomycin for 3 days at 37° and 5% CO2. Cells were then diluted to 1.0×10^5 ml^−1 using F-12K supplemented media, and added to 96 well tissue culture plates at a volume of 100 μl. Plates were incubated for 24 hours at 37° C. and 5% CO2, allowing the cells to adhere to the plastic. […] Plates were then incubated for 48 hours at 37° C. and 5% CO2. After 48 hours the media was removed, and new media added containing MTT (3-(4, 5-dimethylthiazol-2-yl)-2, 5-diphenyltetrazolium bromide), followed by incubation for four hours at 37° C. and 5% CO2. After 4 h, 50 μl of media was removed, replaced with DMSO and incubated for ten minutes at 37° C. in order to solubilize any formazan produced. A Biotek plate reader was used to measure the absorbance of formazan production at […], and IC50 values were determined for each of the five compounds. Front runners were solvated in 45% w/v (2-hydroxypropyl)-β-cyclodextrin in water for these studies; which was also used alone as a negative control. IC50 values were determined for each compound by comparison to vehicle only controls, to assess toxicity to human cells.
# [10] = tested on: S. aureus; experiment: Resistance serial passage assay; assay type: cell-based, Staphylococcus aureus; conditions: 8 passages, concentration doubled each day
# Procedure: ESKAPE pathogens were grown overnight in liquid media at 37° C. These cultures were then diluted 1:100 in fresh media, and seeded into a 96-well plate. Lead bis-cyclic guanidines or control agents were added to respective wells at half MIC concentrations. Plates were then incubated for 24 hours at 37° C., with bacteria removed from these cultures on the following day, to inoculate fresh media (1:100 dilution) containing compounds at a 2-fold higher concentrations. These were then grown overnight, and the procedure repeated for a total of eight days. […] Each experiment was performed in triplicate, yielding identical results.
# [11] = tested on: E. cloacae; assay type: cell-based, Enterobacter cloacae; conditions: 8 passages, concentration doubled each day
# Procedure: ESKAPE pathogens were grown overnight in liquid media at 37° C. These cultures were then diluted 1:100 in fresh media, and seeded into a 96-well plate. Lead bis-cyclic guanidines or control agents were added to respective wells at half MIC concentrations. […] These were then grown overnight, and the procedure repeated for a total of eight days.
# [12] = panel of K. pneumoniae clinical isolates
# [13] = 225 μM (highest concentration tested)
# [14] = Klebsiella pneumoniae, K. pneumoniae isolate 1408
# [15] = Klebsiella pneumoniae, K. pneumoniae isolate 1409
# [16] = Klebsiella pneumoniae, K. pneumoniae isolate 1410
# [17] = Klebsiella pneumoniae, K. pneumoniae isolate 1411
# [18] = Klebsiella pneumoniae, K. pneumoniae isolate 1412
# [19] = Klebsiella pneumoniae, K. pneumoniae isolate 1413
# [20] = Klebsiella pneumoniae, K. pneumoniae isolate 1433
# [21] = Klebsiella pneumoniae, K. pneumoniae isolate 1434
# [22] = Klebsiella pneumoniae, K. pneumoniae isolate 1440
# [23] = Klebsiella pneumoniae, K. pneumoniae isolate 1441
# [24] = Klebsiella pneumoniae, purified compound, Table 1
# [25] = Acinetobacter baumannii, A. baumannii isolate 1403
# [26] = Acinetobacter baumannii, A. baumannii isolate 1643
# [27] = Acinetobacter baumannii, A. baumannii isolate 1644
# [28] = Acinetobacter baumannii, A. baumannii isolate 1647
# [29] = Acinetobacter baumannii, A. baumannii isolate 1648
# [30] = Acinetobacter baumannii, A. baumannii isolate 1649
# [31] = Acinetobacter baumannii, A. baumannii isolate 1650
# [32] = Acinetobacter baumannii, A. baumannii isolate 1651
# [33] = Acinetobacter baumannii, A. baumannii isolate 1653
# [34] = Acinetobacter baumannii, A. baumannii isolate 1654
# [35] = Acinetobacter baumannii, purified compound, Table 1
smiles,measurement,setting,value
CCCCCCCN1C(=N)N(CCCC[C@H]2CNC(=N)N2CCC23CC4CC(CC(C4)C2)C3)C[C@@H]1CCCC [Compound 19],"stacked score activity, 100/MIC, K",[1],20
same,MIC,[1]; K. pneumoniae isolate 1408,2.0 µM
same,MIC,[1]; K. pneumoniae isolate 1409,3.0 µM
same,MIC,[1]; K. pneumoniae isolate 1410,3.0 µM
same,MIC,[1]; K. pneumoniae isolate 1411,2.0 µM
same,MIC,[1]; K. pneumoniae isolate 1412,3.0 µM
same,MIC,[1]; K. pneumoniae isolate 1413,3.0 µM
same,MIC,[1]; K. pneumoniae isolate 1433,2.0 µM
same,MIC,[1]; K. pneumoniae isolate 1434,5.0 µM
same,MIC,[1]; K. pneumoniae isolate 1440,3.0 µM
same,MIC,[1]; K. pneumoniae isolate 1441,2.0 µM
same,concentration inhibiting 70% of strains,[1]; [12],2 µM
same,concentration inhibiting 90% of isolates,[1]; [12],5 µM
same,MIC,"[1]; purified compound, Table 1",1.66 µM
same,"stacked score activity, 100/MIC, A",[2],25
same,MIC,[2]; A. baumannii isolate 1403,2.0 µM
same,MIC,[2]; A. baumannii isolate 1643,2.0 µM
same,MIC,[2]; A. baumannii isolate 1644,2.0 µM
same,MIC,[2]; A. baumannii isolate 1647,2.0 µM
same,MIC,[2]; A. baumannii isolate 1648,2.0 µM
same,MIC,[2]; A. baumannii isolate 1649,2.0 µM
same,MIC,[2]; A. baumannii isolate 1650,2.0 µM
same,MIC,[2]; A. baumannii isolate 1651,2.0 µM
same,MIC,[2]; A. baumannii isolate 1653,2.0 µM
same,MIC,[2]; A. baumannii isolate 1654,2.0 µM
same,MIC,"[2]; purified compound, Table 1",1.66 µM
same,MBC,[3],4.66 µM
same,MBC,[4],2.70 µM
same,MBC,[5],3.59 µM
same,MBC,[6],2.61 µM
same,MBC,[7],2.77 µM
same,MBC,[8],2.88 µM
same,A549 cell recovery compared to vehicle only controls,[9]; [13],> 70%
same,IC50,[9],146 µM
same,A549 cell recovery compared to vehicle only controls,"[9]; above 45 μM, at concentrations up to 225 μM",≥ 26%
same,A549 cell recovery compared to vehicle only controls,[9]; concentrations up to 45 μM,> 97%
same,increase in MIC after serial passage,[10],16 fold
same,increase in MIC after serial passage,[11],8 fold
CCCCCCCN1C(=N)N(CCCC[C@H]2CNC(=N)N2CCCCC2CCCCC2)C[C@@H]1CC1CCCCC1 [Compound 16],"stacked score activity, 100/MIC, K",[1],20
same,MIC,[1]; [14],2 µM
same,MIC,[1]; [15],3 µM
same,MIC,[1]; [16],3 µM
same,MIC,[1]; [17],2 µM
same,MIC,[1]; [18],3 µM
same,MIC,[1]; [19],3 µM
same,MIC,[1]; [20],2 µM
same,MIC,[1]; [21],5 µM
same,MIC,[1]; [22],3 µM
same,MIC,[1]; [23],2 µM
same,MIC,[1]; [24],1.62 µM
same,concentration inhibiting 90% of isolates,[1]; [12],5 µM
same,"stacked score activity, 100/MIC, A",[2],33
same,MIC,[2]; [25],2 µM
same,MIC,[2]; [26],2 µM
same,MIC,[2]; [27],2 µM
same,MIC,[2]; [28],2 µM
same,MIC,[2]; [29],2 µM
same,MIC,[2]; [30],2 µM
same,MIC,[2]; [31],2 µM
same,MIC,[2]; [32],2 µM
same,MIC,[2]; [33],2 µM
same,MIC,[2]; [34],2 µM
same,MIC,[2]; [35],1.62 µM
same,MBC,[3]; Acinetobacter baumannii,2.77 µM
same,MBC,[4]; Enterobacter cloacae,9.55 µM
same,MBC,[5]; Enterococcus faecium,2.87 µM
same,MBC,[6]; Klebsiella pneumoniae,4.45 µM
same,MBC,[7]; Pseudomonas aeruginosa,3.99 µM
same,MBC,[8]; Staphylococcus aureus,3.88 µM
same,IC50,"[9]; Homo sapiens, A549",> 225 µM
same,increase in MIC after serial passage,[10],16 fold
same,increase in MIC after serial passage,[11],8 fold
CCCCCCCN1C(=N)N(CCCC[C@H]2CNC(=N)N2CCc2cccc(C(F)(F)F)c2)C[C@@H]1CCCC [Compound 1],"stacked score activity, 100/MIC, K",[1],33
same,MIC,[1]; [14],2 µM
same,MIC,[1]; [15],3 µM
same,MIC,[1]; [16],3 µM
same,MIC,[1]; [17],2 µM
same,MIC,[1]; [18],5 µM
same,MIC,[1]; [19],3 µM
same,MIC,[1]; [20],2 µM
same,MIC,[1]; [21],5 µM
same,MIC,[1]; [22],2 µM
same,MIC,[1]; [23],2 µM
same,MIC,[1]; [24],1.63 µM
same,concentration inhibiting 90% of isolates,[1]; [12],10 µM
same,"stacked score activity, 100/MIC, A",[2],20
same,MIC,[2]; [25],2 µM
same,MIC,[2]; [26],2 µM
same,MIC,[2]; [27],2 µM
same,MIC,[2]; [28],2 µM
same,MIC,[2]; [29],2 µM
same,MIC,[2]; [30],2 µM
same,MIC,[2]; [31],2 µM
same,MIC,[2]; [32],2 µM
same,MIC,[2]; [33],2 µM
same,MIC,[2]; [34],2 µM
same,MIC,[2]; [35],1.63 µM
same,MBC,[3]; Acinetobacter baumannii,3.05 µM
same,MBC,[4]; Enterobacter cloacae,3.14 µM
same,MBC,[5]; Enterococcus faecium,1.87 µM
same,MBC,[6]; Klebsiella pneumoniae,2.36 µM
same,MBC,[7]; Pseudomonas aeruginosa,4.01 µM
same,MBC,[8]; Staphylococcus aureus,3.09 µM
same,A549 cell recovery compared to vehicle only controls,[9]; [13],around 40%
same,IC50,"[9]; Homo sapiens, A549",164 µM
same,increase in MIC after serial passage,[10],two-fold
